Our source for the relative viability values is the supplement of paper PMC10307832.

Common to all, as to test: relative viability (nuclei count vs DMSO), 5 days (fraction); higher = more cells survive
Compound in experiment [1]: COc1cc(-c2nn([C@H]3CC[C@H](N4CCN(C(C)=O)CC4)CC3)c3ncnc(N)c23)ccc1NC(=O)c1cc2ccccc2n1C + N=C(N)NC(=N)NCCc1ccccc1 [Phenformin] (partner 250 µM)
An outline of the steps: (§1)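 Relative viability was taken as the ratio of nuclei in treated wells to nuclei in vehicle wells. Lung cancer cell lines in 1536-well plates received compounds by pin tool one day after seeding, either one drug alone or a fixed anchor-drug dose plus five library-drug doses (not always all listed) in √10 steps. Nuclei were counted on 4× images after 5 days of treatment, and values are medians of duplicate plates.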

Compound in experiment [2]: COc1cc(-c2nn([C@H]3CC[C@H](N4CCN(C(C)=O)CC4)CC3)c3ncnc(N)c23)ccc1NC(=O)c1cc2ccccc2n1C + CC(=O)Nc1cccc(-n2c(=O)n(C3CC3)c(=O)c3c(Nc4ccc(I)cc4F)n(C)c(=O)c(C)c32)c1 [Trametinib] (partner 0.02 µM)
An outline of the steps:
as §1

Compound in experiment [3]: CO[C@@H]1[C@H](N(C)C(=O)c2ccccc2)C[C@H]2O[C@]1(C)n1c3ccccc3c3c4c(c5c6ccccc6n2c5c31)C(=O)NC4 [Midostaurin] + C[C@]1(O)C[C@@H](c2nc(-c3ccc4ccc(-c5ccccc5)nc4c3)c3c(N)nccn32)C1 [Linsitinib] (partner 1 µM)
An outline of the steps: as §1

Compound in experiment [4]: CO[C@@H]1[C@H](N(C)C(=O)c2ccccc2)C[C@H]2O[C@]1(C)n1c3ccccc3c3c4c(c5c6ccccc6n2c5c31)C(=O)NC4 [Midostaurin] + O=C(c1cc(Cc2n[nH]c(=O)c3ccccc23)ccc1F)N1CCN(C(=O)C2CC2)CC1 [Olaparib] (partner 8 µM)
The gist of the method:
as §1

Compound in experiment [5]: CO[C@@H]1[C@H](N(C)C(=O)c2ccccc2)C[C@H]2O[C@]1(C)n1c3ccccc3c3c4c(c5c6ccccc6n2c5c31)C(=O)NC4 [Midostaurin] + CC(=O)Nc1cccc(-n2c(=O)n(C3CC3)c(=O)c3c(Nc4ccc(I)cc4F)n(C)c(=O)c(C)c32)c1 [Trametinib] (partner 0.02 µM)
An outline of the steps:
as §1

As to UMC-11, the relative viability amounted to 0.285 in experiment [1] (first compound 0.0128 µM); 0.336 in experiment [1] (first compound 0.04048 µM); 0.311 in experiment [1] (first compound 0.128 µM); 0.279 in experiment [1] (first compound 1.28 µM); 0.654 in experiment [2] (first compound 0.0128 µM); 0.689 in experiment [2] (first compound 0.04048 µM). Moreover, the relative viability in experiment [2] (first compound 0.128 µM) was found to be 0.67; in experiment [2] (first compound 1.28 µM) it was 0.661; in experiment [3] (first compound 0.01 µM), 0.984; in experiment [3] (first compound 0.03162 µM), 0.998; in experiment [3] (first compound 0.1 µM), 0.95; in experiment [3] (first compound 0.3162 µM), 0.586. The relative viability in experiment [4] (first compound 0.01 µM) amounted to 0.354; in experiment [4] (first compound 0.03162 µM), 0.387; in experiment [4] (first compound 0.1 µM), 0.303; in experiment [4] (first compound 0.3162 µM), 0.207; in experiment [5] (first compound 0.01 µM), 0.698; in experiment [5] (first compound 0.03162 µM), 0.656. Further, the relative viability in experiment [5] (first compound 0.1 µM) came to 0.691; in experiment [5] (first compound 0.3162 µM), 0.562.
